Measurements published in publication PMC5554537 (Frontiers in Pharmacology, 2017).
Read-outs that look alike come from different tables or passages of the source.

How the values were obtained:
[1] = Metabolite profile in plasma, liver and HT29 tumor after i.p. SN30000; format: in vivo, NIH-III mice; conditions: SN30000 186 mg/kg i.p.; for Metabolite/SN30000 peak area, Tumor: HT29 tumor
Experimental: Mouse plasma and tissue homogenates, prepared from tissue samples in two volumes of ice-cold PBS using a TissueLyser II (Qiagen Sciences, Germantown, MD, United States) with 30 Hz oscillation frequency for 1 min, were processed by precipitating proteins with 3 vol MeOH and centrifuging (13,000 g, 4°C for 10 min). Supernatants were diluted into 3 vol water and analyzed with an Agilent model 6460 LC-MS/MS with an in-line photodiode array absorbance detector. Chromatographic separation was performed on a Zorbax Eclipse C18 column (100 mm × 3.0 mm, 1.8 μm; Agilent Technologies) at 35°C with a flow rate of 0.6 mL/min, with positive or negative mode electrospray ionization. The mobile phase was a gradient constructed using 80% MeCN/20% water/0.1% formic acid v/v/v (A) and 0.1% formic acid in water (B) from 10% A to 80% A with a total run time of […]. The gradient profile was: 0–4 min, 10% A; 4–11 min linear increase to 60% A; 11–12 min to 80% A; held for 1 min, returned to 10% A over 0.5 min and held for 2 min before the next sample injection. Absorbance spectra were collected from 230 to 600 nm with a reference wavelength of 550 nm. The mass/charge (m/z) ratio was scanned from 100 to 800 with a fragmentor voltage of 120 V. MS^2 with various collision energies was used for further characterization of some metabolites.
Metabolites were investigated in plasma, liver and HT29 tumors following i.p. dosing of female NIH-III mice with SN30000 at 186 mg/kg, which represents its previously determined MTD for this route and mouse strain ([Gu et al., 2014]). Representative chromatograms are shown in Supplementary Figure 1. A total of 19 metabolites (M1–M19) were provisionally identified (Figure 1 and Table 1). Assignments were confirmed by comparison with synthetic standards in the case of the 1-oxide M14 and nor-oxide M13, which have previously been reported as murine metabolites of SN30000 ([Wang et al., 2012]) and for M15 which is known to be the major photodegradation product of SN30000 ([Gu et al., 2014]). In addition, the previously unreported metabolite M18, which is the main plasma metabolite at late times, was isolated from pooled plasma of mice dosed with M14 in sufficient quantity for characterization by NMR (Supplementary Data). This identified M18 as an oxidation product of M14 with an alkanoic acid side-chain (Figure 1), an assignment that was confirmed by synthesis of the authentic compound which was identical by HPLC retention time, absorbance spectrum, elemental analysis, mass spectrum and NMR spectroscopy.

[2] = in vivo; conditions: female, NIH-III nude, mouse, plasma, ip
Experimental: SN30000, M14 and M18 dosing solutions were prepared fresh in normal saline, filtered through 0.45 μm Acrodisc filters (Pall Life Sciences, Port Washington, NY, United States), protected from light in amber vials, and used within 3 h. Doses are expressed as mg of free base equivalent for SN30000 and M14, and free acid in the case of M18. […] Blood samples were collected from mice at various times by cardiac puncture, seconds after cervical dislocation, into ice-cold tubes containing K2EDTA. These were placed on ice immediately after collection and centrifuged (3,000 g, 3 min) within 10 min to harvest plasma. Plasma and tissues were rapidly frozen in liquid nitrogen before storage at -80°C for subsequent bioanalysis.
Non-compartmental parameters of 3H-mannitol for the data
shown in Figure 9 where female NIH-III nude mice were dosed with 3H-mannitol at
from mannitol concentrations as described in Methods for SN30000 and its metabolites.
Co-administered with Administered 16hr

[3] = Compartmental plasma PK model; format: in vivo
Text: This model, shown schematically in Figure 9, is based on total (free + bound) plasma concentrations; the major metabolites (M14, M13, and M18) are explicit and clearance of SN30000 occurs only by reduction to M14. The i.p. bioavailability of SN30000 was modeled with an additional term for loss from the peritoneal compartment (kloss).

[4] = system: SiHa cells; assay: Oxygen consumption rate, Seahorse XFe96 analyser; format: cell-based, human; conditions: 200 µM, mitochondrial stress test
Experimental: (OCR) of the human cervical carcinoma cell line SiHa and a previously described (Guise et al., 2007) POR-overexpressing transfectant SiHa/POR, determined using a Seahorse XFe96 Analyser (Agilent). Cells were passaged in αMEM plus 5% FCS, with 1 µM puromycin to maintain POR expression in the SiHa/POR cell line. Cells were ty pically seeded at 4×10^4 cells/well in Seahorse 96 well plates (without puromycin) and ~ 18 hr later the medium was changed to Seahorse medium with 10 mM glucose and 2 mM glutamine (SMGG) adjusted to pH 7.35 (150 µl/well). Plates were degassed to remove CO2, and inhibitors were added serially using the Seahorse injectors (25 µl/injection) with rotenone (final concentration 0.5 µM) typically added at the start of the 30 min equilibration in the flux analyser. OCR was monitored for three 3 min periods following each drug addition. […]
injection 1 and at each subsequent injection to maintain concentrations at 200 µM continuously during the test. The control received equivalent injections of SMGG without drugs. In all cases (including controls), injection 2 added oligomycin to give 0.5 µM, injection 3 added carbonyl cyanide […] (FCCP) to 0.5 µM, and injection 4 added rotenone and antimy cin to 1 µM each. V alues are means and errors are standard deviations, for 6 replicate cultures. […]
suppressed by M14, both in the presence (injection 1) and absence (injection 4) of respiratory […]
presence or absence of 0.5 µM rotenone when SN30000 is added cumulatively to give the indicated concentrations. Values are means and SEM for 5 replicate cultures. The fall in OCR after transient stimulation at each addition of SN30000 is consistent with the pattern for CHO/POR cells in Supplementary Fig. 4A.
C: Concentration dependence of increases in OCR by SiHa/POR cells, measured at the first […]
effects noted above. Left panel: SN30000. Right panel: TPZ. Values are means and errors are […]

[5] = system: NIH-III mice; assay: Mouse toxicity: MTD, survival and body weight loss after single i.p. doses; format: in vivo; conditions: i.p., NIH-III mice, as stated for the temperature study (Figure 4)
Text: Mouse toxicity SN30000 and metabolites M14 and M18: survival and body weight loss following single i.p. doses to NIH-III mice.
Cmpd Dose Body weight nadir Body weight nadir
(µmol/kg) Survivala Survivala
Day Weight loss (%)b Day Weight loss (%)b […]
a Survival reported as a fraction of total nu mber of animal treated at a giv en dose, with an observation time of 14 days. Deaths were predominantly due to humane ter mination because of persistent clinical signs or body weight loss > 15% of pretreatment values. b Body weig ht loss at nadir, relative to pre-treatment values. Values are mean and errors are […]
c Data from Gu et al., 2014 d Mouse died <24 hr after dosing.

[6] = system: NIH-III mice; assay: Core body (rectal) temperature and acute clinical signs after dosing; format: in vivo
Experimental: Supplementary Figure 3. Initial rates of core temperature decrease in (untreated) NIH-III mice post- mortem: co mparison with initial temperature change ante- mortem following treatment with benzotriazine oxides at their MTD. Temperature was measured in rectu m and liver over 15 min. Initial rates of temperature loss (°C/min) were: post- mortem (rectum):
(rectum) 0.33. The rectal temperature loss following dosing with M14 (135 mg/kg) was 0.6 °C/min (not shown for clarity). The drug-induced changes are redrawn from Fig. 4.

[7] = administered 16hr after SN30000 0 mg/kg
[8] = at the highest i.p. dose of co-administered SN30000
[9] = co-administered with SN30000 18.6 mg/kg i.p.
[10] = co-administered with SN30000 92.8 mg/kg i.p.
[11] = co-administered with SN30000 186 mg/kg i.p.

For `[O-][n+]1nc(CCCN2CCOCC2)nc2cc3c(cc21)CC=C3` [M5], the “Metabolite/SN30000 peak area, Tumor” value [1] was 0.04, the “Metabolite/SN30000 peak area, Liver” value [1] was 0.64 and the “Metabolite/SN30000 peak area, Plasma” value [1] was 0.05.

For `[O-][n+]1nc(CCCNCCO)[n+]([O-])c2cc3c(cc21)CCC3` [M7], the “Metabolite/SN30000 peak area, Tumor” value [1] was 0.06, the “Metabolite/SN30000 peak area, Liver” value [1] was 0.17 and the “Metabolite/SN30000 peak area, Plasma” value [1] was 0.06.

With `OCCNCCCc1nnc2cc3c(cc2n1)CCC3` [M11] the “Metabolite/SN30000 peak area, Tumor” value [1] was 0.06, the “Metabolite/SN30000 peak area, Liver” value [1] was 0.34 and the “Metabolite/SN30000 peak area, Plasma” value [1] was 0.04.

In the case of `[O-][n+]1nc(CCCNCCO)nc2cc3c(cc21)CCC3` [M12], the “Metabolite/SN30000 peak area, Tumor” value [1] was 0.16, the “Metabolite/SN30000 peak area, Liver” value [1] was 1.06 and the “Metabolite/SN30000 peak area, Plasma” value [1] was 0.13.

In the case of `[O-][n+]1nc(CCC[N+]2([O-])CCOCC2)nc2cc3c(cc21)CCC3` [M15], the “Metabolite/SN30000 peak area, Tumor” value [1] was 0.24, the “Metabolite/SN30000 peak area, Liver” value [1] was 0.21 and the “Metabolite/SN30000 peak area, Plasma” value [1] was 0.26.

In the case of `O=C(O)CCc1n[n+]([O-])c2cc3c(cc2[n+]1[O-])CCC3` [M16], the “Metabolite/SN30000 peak area, Tumor” value [1] was 0.49, the “Metabolite/SN30000 peak area, Liver” value [1] was 0.34 and the “Metabolite/SN30000 peak area, Plasma” value [1] was 0.50.

In the case of `O=C(O)CCc1nnc2cc3c(cc2n1)CCC3` [M17], the “Metabolite/SN30000 peak area, Tumor” value [1] was 0.14, the “Metabolite/SN30000 peak area, Liver” value [1] was 0.12 and the “Metabolite/SN30000 peak area, Plasma” value [1] was 0.11.

With `O=C1COCCN1CCCc1nc2cc3c(cc2[n+]([O-])n1)CCC3` [M19] the “Metabolite/SN30000 peak area, Tumor” value [1] was 0.02, the “Metabolite/SN30000 peak area, Liver” value [1] was 0.27 and the “Metabolite/SN30000 peak area, Plasma” value [1] was 0.03.

Work on `OC[C@@H](O)[C@@H](O)[C@H](O)[C@H](O)CO` [Mannitol, mannitol] yielded an AUC (3H-mannitol 25 µmol/kg co-administered with SN30000 1.86 mg/kg i.p.) of 16.1 µM.hr/L, an AUC [7] of 17.5 µM.hr/L and an AUC (administered 16hr after SN30000 18.6 mg/kg i.p.) of 19.6 µM.hr/L. The AUC (administered 16hr after SN30000 186 mg/kg i.p.) was 20.4 µM.hr/L, the “Increase in AUC” value [8] was 3 fold and the “Increase in plasma half-life” value [8] was about 2 fold. The AUC [9] was 17.9 µM.hr/L, the AUC [10] was 36.2 µM.hr/L and the AUC [11] was 44.5 µM.hr/L. It also gave a Cmax ([2]; 18.6 mg/kg, administered 16hr after SN30000 18.6 mg/kg i.p.) of 36.9 µM, a half-life ([2]; 18.6 mg/kg, T1/2, administered 16hr after SN30000 18.6 mg/kg i.p.) of 21 min and a Cmax ([2]; 186 mg/kg, administered 16hr after SN30000 186 mg/kg i.p.) of 33.2 µM. For the same compound, the half-life ([2]; 186 mg/kg, T1/2, administered 16hr after SN30000 186 mg/kg i.p.) was 23.2 min, the Cmax [2, 7] was 31.7 µM and the Cmax ([2]; co-administered with SN30000 1.86 mg/kg i.p.) was 41.2 µM. It also gave a Cmax [2, 9] of 43.5 µM, a Cmax [2, 10] of 52.3 µM and a Cmax [2, 11] of 51 µM. For the same compound, the half-life ([2]; T1/2, administered 16hr after SN30000 0 mg/kg) was 19.7 min, the half-life ([2]; T1/2, co-administered with SN30000 1.86 mg/kg i.p.) was 14.1 min and the half-life ([2]; T1/2, co-administered with SN30000 18.6 mg/kg i.p.) was 13.1 min. The half-life ([2]; T1/2, co-administered with SN30000 92.8 mg/kg i.p.) was 24.6 min, the half-life ([2]; T1/2, co-administered with SN30000 186 mg/kg i.p.) was 26.9 min and the “Central compartment volume V1” value ([3]; 1-Oxide and Nor-oxide values fixed) was 0.39 L/kg. The “Approximate % suppression per °C of CL” value ([3]; NIH-III, mouse, in vivo) was about 24%, the clearance ([3]; NIH-III, mouse, plasma, other: i.p. and i.v. datasets fitted simultaneously, model clearance of the compound, read-out: CL (converted)) was 19.5 mL/min/kg and the Vd ([3]; NIH-III, mouse, plasma, other: i.p. and i.v. datasets fitted simultaneously, read-out: Steady state volume VSS) was 0.39 L/kg.

For `Nc1n[n+]([O-])c2ccccc2[n+]1[O-]` [TPZ, tirapazamine, reference compound], the “Effect on oxygen consumption rate (OCR)” value [4] was “increased”, the MTD [5] was 31.7 mg/kg and the “Initial rate of temperature loss (rectum)” value ([6]; i.p. SN30000 186 mg/kg, TPZ 31.7 mg/kg, M14 135 mg/kg) was 0.33 °C/min. The “Effect on core body temperature” value ([6]; i.p. dosing at MTD, compared with SN30000) was “induced hypothermia”.
